Measurements published in US20150133411A1, “COMPOUNDS WITH TRPV4 ACTIVITY, COMPOSITIONS AND ASSOCIATED METHODS THEREOF” (The University of Utah Research Foundation, priority 2012, published 2015).

What was measured:
Müller cells = test: Arachidonic acid-induced [Ca2+]i in Müller cells; type: cell-based; details: 10 μM
Protocol: This response is blocked by Compound 1 (1 μM).

retinal ganglion cells [1] = test: In vivo intraocular injection of GSK, NeuN+ RGC count; details: intraocular injection 100-300 nM, retinas after 48 hours
Protocol: In this experiment, GSK (100-300 nM) was injected intraocularly with a Hamilton syringe. Retinas were isolated after 48 hours, fixed and labeled with the RGC marker antibody NeuN. NeuN-immunopositive somata in the ganglion cell layer, shown in the panel on the right, were counted. The bar graph represents quantification of NeuN^+ cells in the indicated experimental groups.

TRPV4 [2] = molecular target: T1, TRPV4 (Mus musculus, UniProt Q9EPK8); test: GSK-evoked [Ca++]i in retinal Müller glial cells; type: cell-based; parameters: endogenous in cells; host or cells: retinal Müller glial cells; details: retinal Müller glial cells; agonist alone
T1 sequence (Q9EPK8 whole entry): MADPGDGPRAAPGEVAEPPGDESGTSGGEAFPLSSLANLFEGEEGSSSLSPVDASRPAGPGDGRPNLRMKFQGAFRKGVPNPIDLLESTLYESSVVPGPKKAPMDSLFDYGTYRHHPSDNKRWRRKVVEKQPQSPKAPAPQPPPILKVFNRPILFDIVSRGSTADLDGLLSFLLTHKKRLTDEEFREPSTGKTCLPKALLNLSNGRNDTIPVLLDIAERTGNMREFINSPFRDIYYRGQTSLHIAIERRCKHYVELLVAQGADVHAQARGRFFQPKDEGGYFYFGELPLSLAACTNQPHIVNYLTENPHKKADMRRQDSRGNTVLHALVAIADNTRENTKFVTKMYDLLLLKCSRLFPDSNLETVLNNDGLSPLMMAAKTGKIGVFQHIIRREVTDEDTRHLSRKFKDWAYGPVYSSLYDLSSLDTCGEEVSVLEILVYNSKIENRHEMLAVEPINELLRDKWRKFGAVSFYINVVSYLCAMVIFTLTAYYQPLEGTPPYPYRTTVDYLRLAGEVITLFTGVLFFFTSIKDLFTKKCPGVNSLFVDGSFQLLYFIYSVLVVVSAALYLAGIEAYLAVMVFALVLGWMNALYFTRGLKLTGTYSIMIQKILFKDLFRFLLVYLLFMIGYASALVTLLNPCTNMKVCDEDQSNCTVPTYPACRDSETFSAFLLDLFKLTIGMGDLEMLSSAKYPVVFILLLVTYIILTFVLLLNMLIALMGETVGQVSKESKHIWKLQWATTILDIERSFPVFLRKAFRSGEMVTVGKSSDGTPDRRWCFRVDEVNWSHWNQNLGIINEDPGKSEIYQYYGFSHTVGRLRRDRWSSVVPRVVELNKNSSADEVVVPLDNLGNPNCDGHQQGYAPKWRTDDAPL

retinal ganglion cells [3] = test: TUNEL assay of apoptotic cell death in retinas; type: cell-based
Protocol: Terminal deoxynucleotidyl transferase-mediated dUTP-biotin nick end labeling (TUNEL) is a common method for detecting fragmentation that results from apoptotic signaling cascades. Retinas were embedded, cryosectioned, and processed for the TUNEL assay following the protocol by Gavrieli et al. (1992). After 30 min. rehydration in 70% ethanol, 2×5 min. rinses in PBS and 1% Triton-X in 1% citrate buffer (pH 7.3), the slides were subjected to a final rinse in PBS. Slides were then incubated for 30 min. in the reaction buffer (30 mM Trizma-HCl, 140 mM cacodylate, 1.0 mM CaCl2, 0.2% Triton X-100, pH 7.2). Positive controls were treated with DNAse I (Roche Diagnostics; Branford, Conn.; 10 U/ml) in the reaction buffer. Next, slides were treated for 1 hour with 0.03 units/μl terminal transferase and 4 μM biotin-16-dUTP (Roche Diagnostics). The reaction was terminated in 30 mM Na+ citrate, 300 mM NaCl and 0.2% Triton X-100 in PBS (5 min.) and rinsed in PBS (2×5 min), exposed to 1% bovine serum albumin in PBS for 20 min and rinsed. Apoptotic cells were visualized with a confocal microscope (Zeiss LSM510) and categorized by size. […] This was blocked by RuR and by the TRPV4 antagonist Compound 1.

TRPV4 [4] = molecular target: T1, TRPV4; test: AGB cation influx into retinal cells (anti-AGB antibody); type: cell-based; parameters: these two cell types express TRPV4 channels in the mouse retina; from tissue; host or cells: mouse retina (retinal ganglion cells and Müller glial cells); details: mouse retina; agonist alone
Protocol: FIG. 16 illustrates the effect of the TRPV4 agonist GSK on cation influx into mouse retinal cells of the mouse retina. The influx was determined using the anti-AGB antibody, as described by Marc R E (J Comp Neurol 407(1): 47-64, 1999). AGB is a membrane permeant cation that can flow through most known cation channels. Using an anti-AGB antibody, it can be determined where the cation flux occurs and, therefore, which cells are activated.

TRPV4 [5] = molecular target: T2, TRPV4 (Homo sapiens, UniProt Q9HBA0); test: Fura-2 calcium imaging of human trabecular meshwork (TM) cells; type: cell-based; details: bath application 100 nM
T2 construct: endogenous in cells; host or cells: primary human trabecular meshwork cells from trabeculectomy tissue
T2 sequence (Q9HBA0 whole entry): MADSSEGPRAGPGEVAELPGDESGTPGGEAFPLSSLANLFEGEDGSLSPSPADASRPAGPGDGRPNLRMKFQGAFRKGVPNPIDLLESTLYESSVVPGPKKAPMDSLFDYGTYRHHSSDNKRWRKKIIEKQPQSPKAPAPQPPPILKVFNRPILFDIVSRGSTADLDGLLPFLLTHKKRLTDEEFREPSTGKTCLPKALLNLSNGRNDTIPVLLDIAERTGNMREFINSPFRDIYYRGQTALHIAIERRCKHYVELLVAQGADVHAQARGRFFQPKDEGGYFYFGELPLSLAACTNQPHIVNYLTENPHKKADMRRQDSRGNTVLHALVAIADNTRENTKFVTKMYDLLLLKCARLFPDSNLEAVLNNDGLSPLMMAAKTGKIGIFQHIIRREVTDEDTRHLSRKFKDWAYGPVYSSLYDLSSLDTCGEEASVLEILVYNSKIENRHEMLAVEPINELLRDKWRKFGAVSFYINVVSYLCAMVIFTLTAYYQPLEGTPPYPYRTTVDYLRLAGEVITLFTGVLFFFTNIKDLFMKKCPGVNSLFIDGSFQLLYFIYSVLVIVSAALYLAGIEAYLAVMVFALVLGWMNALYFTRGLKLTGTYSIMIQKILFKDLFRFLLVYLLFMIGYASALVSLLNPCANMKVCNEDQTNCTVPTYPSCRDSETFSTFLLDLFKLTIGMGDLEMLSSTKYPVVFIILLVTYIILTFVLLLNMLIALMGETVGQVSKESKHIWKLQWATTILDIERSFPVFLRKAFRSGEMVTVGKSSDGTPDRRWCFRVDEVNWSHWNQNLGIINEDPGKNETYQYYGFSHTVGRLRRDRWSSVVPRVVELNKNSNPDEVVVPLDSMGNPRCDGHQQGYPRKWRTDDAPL
Protocol: Pieces of tissue were isolated from a trabeculectomy. Trabecular meshwork cells (TM) were kept in cold L15 medium and then loaded with Fura-2 (10 μm) for 1 hour. Fibroblast-shaped cells were imaged from a TM chunk (˜500 μm×500 μm) with a 40× water immersion objective. The sampling rate was at 6 second intervals. Krebs Ringer Bicarbonate Recording buffer (7.4, 284 mOsm) was prepared as reported by Anthony et al., 1998, IOVS; Prostaglandin F2α receptors in the human trabecular meshwork.
Calcium imaging was performed on TM cells isolated from human patients. In brief, dissociated human TM cells embedded within the tissue were dissociated and plated on concanavalin A-coated (0.2 mg/ml; Sigma) coverslips, loaded with fura-2 AM ([…]; Invitrogen Life Technologies) for 15 min-1 hour and washed for 10 min in dye-free L-15 medium. […] Fluorescence emission was high-pass filtered at 510 nm and captured with cooled digital CCD cameras (HQ2, Photometrics). […] Fluorescence imaging was performed on regions of interest (ROIs) encompassing the TM cell somata, typically at 3×3 binning. Background fluorescence was measured in similarly sized ROIs in neighboring areas devoid of cells. After sequential image acquisition (0.167-0.5 Hz) of cell fluorescence at 340/380 nm, the background was subtracted. […]

[6] = tested on: retinal neurons (RGCs) and glia (Müller cells); test: Hypotonic stimuli: cell swelling (change in cell area) and [Ca++]i; type: cell-based; details: hypotonic stimuli, 300 mOsm to 190 mOsm
From the text: FIG. 18A illustrates the effect of hypotonic stimuli on cell swelling as measured by change in cell area. Hypotonic stimuli were generated by replacing extracellular sodium levels to lower osmolarity from 300 mOsm to 190 mOsm.

MB model of glaucoma = test: IOP time course after single eye drop in MB model of glaucoma; type: in vivo, mouse; details: eye drop
Protocol: Specifically, microbeads (MBs) were injected into the anterior chamber of a mouse eye as described in Example 2 with PBS-injected eyes used as controls. Compound 1 (10 mg/kg body weight) (or PBS vehicle) was injected intraperitoneally (IP). […] IOP was measured in mice between 10:00 AM and 1:00 PM with the TonoLab rebound tonometer (Colonial Medical Supply, Franconia, NH/Tyolat, Helsinki, Finland). Mice were sedated with IP injection of Avertin with final amount calculated by weight (e.g., 0.5 ml for 21-24 g animals). Animals were placed on a jack stand platform and the tonolab was clamped on a ring stand and centered onto the mid-cornea. During measurements animal were neither restrained nor touched. Each eye was measured twenty consecutive times, the highest and lowest values were discarded and the values were averaged.
FIG. 9 illustrates the short-term effects of a single dose of Compound 1 (eye drop) in the MB model of glaucoma. IOP was measured as described in Example 3 at the indicated time points after receiving a drop of Compound 1. Compound 1 reduced IOP beginning at 1 hour after dosing and continued through 6 hours after dosing.
FIG. 10 illustrates a time course of Compounds 1, 2, 5 and Compound 2-HCl as well as a positive control compound, timolol, with regard to inhibition of IOP. The experiment was conducted as described in Example 9. Each of the TRPV4 antagonists reduced IOP with a similar time course. Specifically, Compounds 1, 2, 5 and Compound 2-HCl reduced IOP for at least 6 hours after dosing.
FIG. 11 illustrates a time course of Compound 2-HCl activity. The experiment was conducted as described in Example 9. […] 2
FIG. 12 illustrates a comparison of the time course of Compound 2-HCl and Compound 5. The experiment was conducted as described in Example 9.

CCCCC/C=C\C/C=C\C/C=C\C/C=C\CCCC(=O)O [arachidonic acid, reference compound]
[Ca2+]i response (Müller cells): increase in [Ca2+]i

CC(C)C[C@H](NC(=O)c1cc2ccccc2s1)C(=O)N1CCN(C(=O)[C@H](CO)NS(=O)(=O)c2ccc(Cl)cc2Cl)CC1 [GSK1016790A, reference compound]
number of retinal ganglion cells (NeuN+ somata) (retinal ganglion cells [1]): substantially reduces the number of retinal ganglion cells | intracellular calcium concentration [Ca++]i (TRPV4 [2]): evokes sustained increases | death of retinal ganglion cells (TUNEL staining) (retinal ganglion cells [3]; 100 nM, agonist alone): induced death of retinal ganglion cells | number of AGB+ cells (cation influx) (TRPV4 [4]): increased the number of AGB^+ retinal ganglion cells and Müller glial cells | 340/380 fluorescence ratio (intracellular calcium [Ca++]i) (TRPV4 [5]): increased 340/380 fluorescence ratio

N.N.N.N.N.N.N.N.N.N.N.N.N.N.[Cl-].[Cl-].[Cl-].[Cl-].[Cl-].[Cl-].[O-2].[O-2].[Ru+3].[Ru+3].[Ru+4] [Ruthenium Red]
apoptotic cell death induced by hypotonic swelling (TUNEL) (retinal ganglion cells [3]; 190 mOsm saline, Compound 1 1 uM, RuR 10 μM): block apoptotic cell death | apoptotic cell death induced by TRPV4 agonist GSK (TUNEL) (retinal ganglion cells [3]; GSK 100 nM, Compound 1 1 uM, RuR 10 μM): block apoptotic cell death

CC(=O)OCOC(=O)CN(CC(=O)OCOC(C)=O)c1ccccc1OCCOc1ccccc1N(CC(=O)OCOC(C)=O)CC(=O)OCOC(C)=O [BAPTA-AM, reference compound]
cell swelling (change in cell area) [6]: significantly reduced

CC(C)(C)NC[C@H](O)COc1nsnc1N1CCOCC1 [timolol, reference compound]
dose-response curve for inhibition of IOP relative to TRPV4 antagonists (MB model of glaucoma; positive control): left-shifted dose-response curve

Cc1c(C(=O)Nc2cccc(C(=O)OC(C)C)c2)cc(-c2ccccc2)n1CCCN1CCOCC1.Cl [Compound 2-HCl, iso-propyl 3-(2-methyl-1-(3-morpholinopropyl)-5-phenyl-1H-pyrrole-3-carboxamido)benzoate hydrochloride]
time of maximal inhibition of IOP (MB model of glaucoma; after dosing): 6 h
